Test results taken from patent US8298756B2, “Isolation, gene expression, and chemotherapeutic resistance of motile cancer cells” (Albert Einstein College of Medicine of Yeshiva University, priority 2004, dated 2012).

Legend:
[1] = test system: invasive cells and general population of carcinoma cells from MTLn3-derived tumors; assay: Cell culture and apoptosis assay (Annexin V-Cy5 / PI) after drug challenge, invasive cells vs general population; assay type: cell-based, rat; details: for drug tolerance (apoptotic index and cell viability) of invasive cells: as a percentage of all carcinoma cells, invasive vs general population of tumor cells, 24 hr recovery after drug, FIG. 3; for drug induced apoptotic index / cell death: invasive cells compared to carcinoma cells of the whole tumor, doxorobucin 17 μM, cisplatin 50 μM, etoposide 50 μM for 1 hr, 24 hrs recovery; for drug induced apoptotic index: Annexin V-Cy5; for cell death: PI staining
Procedure: The cells collected by the needle collection procedure were subjected to drug challenge using doxorobucin (17 μM), cisplatin (50 μM) or etoposide (50 μM). The apoptotic status and viability of these cells was assessed by staining with propedium iodide (PI) and Annexin V-Cy5. […] The graph represents viability status and apoptotic index of the cells after being challenged by the anticancer drugs. Cell culture and apoptosis assay. The cells extruded from the needles and tumor cells FACS sorted were cultured in DMEM 20% FCS along with streptomycin and penicillin, for 16 hrs. Subsequently, the cells were challenged with either doxorobucin (17 μM) or cisplatin (50 μM) or etoposide (50 μM) for 1 hr, washed and allowed to recover for 24 hrs. The cells were then subjected to an apoptosis assay kit containing Annexin V Cy5 for staining the apoptotic cells and Propedium Iodide (PI) for staining the dead cells (BD Biosciences San Jose, Calif.). After staining the cells using the manufacturer's protocol, the cells were observed under a fluorescent microscope in the green, red and high red channel for GFP, PI and Cy5 respectively. The total number of GFP cells counted was compared to the number of PI positive and Annexin V-Cy5 positive cells. […] We challenged the invasive cells with three most commonly used anticancer drugs, doxorobucin, cisplatin and etoposide. […] We performed these studies on the invasive and general populations of cells from MTLn3-derived tumors. After treatment with the drugs the cells were allowed to recover for 24 hr. Subsequently, the apoptotic index and cell viability was measured as described in the Methods section.

MTLn3 cells = details: previous studies (Huigsloot et al., 2002); cited from earlier work

SMILES	drug tolerance (apoptotic index and cell viability) of invasive cells [1]	drug induced apoptotic index [1]	cell death [1]	induction of apoptosis (MTLn3 cells)
N.N.[Cl][Pt][Cl] [cisplatin]	invasive cells are able to tolerate all three drugs better than the general population of tumor cells	lower drug induced apoptotic index	lower cell death	induce apoptosis
COc1cccc2c1C(=O)c1c(O)c3c(c(O)c1C2=O)C[C@@](O)(C(=O)CO)C[C@@H]3O[C@H]1C[C@H](N)[C@H](O)[C@H](C)O1 [doxorubicin]	invasive cells are able to tolerate all three drugs better than the general population of tumor cells	lower drug induced apoptotic index	lower cell death	induce apoptosis
COc1cc([C@@H]2c3cc4c(cc3[C@@H](O[C@@H]3O[C@@H]5CO[C@@H](C)O[C@H]5[C@H](O)[C@H]3O)[C@H]3COC(=O)[C@H]23)OCO4)cc(OC)c1O [etoposide]	invasive cells are able to tolerate all three drugs better than the general population of tumor cells	lower drug induced apoptotic index	lower cell death	induce apoptosis
